Source: publication PMC5344255, “Design, Synthesis and Biochemical Evaluation of Novel Selective Estrogen Receptor Ligand Conjugates Incorporating an Endoxifen-Combretastatin Hybrid Scaffold” (Biomedicines, 2016)

Assays:
[1] = tested on: MDA-MB-231 human breast cancer cells; experiment: Lactate dehydrogenase (LDH) cytotoxicity assay in MDA-MB-231; format: cell-based; conditions: % cell lysis at 10 μM
Protocol: (§1) In this assay, the release of cytoplasmic lactate dehydrogenase (LDH) is used as a measure of cell lysis. MCF-7 and MDA-MB-231 cells were seeded at a density of 1 × 10^4 cells/well in a 96-well plate and incubated for 24 h. The cells were then dosed with 2 μL volumes of the test compounds, over the concentration range 1 nM–50 μM. Cytotoxicity was determined using the CytoTox 96 nonradioactive cytotoxicity assay (Promega, Madison, WI, USA) following the manufacturer’s protocol.

[2] = tested on: Ishikawa cell line of human endometrial adenocarcinoma cells; experiment: Ishikawa assay, estrogen stimulation of alkaline phosphatase activity; format: cell-based
Protocol: The Ishikawa assay is used to measure estrogen stimulation of alkaline phosphatase enzyme activity (AlkP) by the Ishikawa cell line of human endometrial adenocarcinoma cells. The Ishikawa assay provides a measure of the agonist activity of a compound. […] The assay was carried out following the method of Littlefield et al.. The batch of Ishikawa cells were obtained as a gift from Professor R. Hochberg—who developed the alkaline phosphatase assay in Yale University, CT, USA.
The Ishikawa assay is used to measure estrogen stimulation of alkaline phosphatase enzyme activity (AlkP) by the Ishikawa cell line of human endometrial adenocarcinoma cells. […] The conjugate was dosed in duplicate.

[3] = HPLC stability study in phosphate buffer; format: physicochemical; conditions: pH values in the range 4–9
Protocol: Analytical high-performance liquid chromatography (HPLC) stability studies were performed using a Symmetry® column (C18, 5 µm, 4.6 × 150 mm), a Waters 2487 Dual Wavelength Absorbance detector, a Waters 1525 binary HPLC pump and a Waters 717 plus Autosampler (Waters Corporation, Milford, MA, USA). Samples were detected at wavelength of 254 nm. All samples were analysed using acetonitrile (80%):water (20%) as the mobile phase over 10 min and a flow rate of 1 mL/min. Stock solutions are prepared by dissolving 5mg of compound in 10 mL of mobile phase. Phosphate buffers at the desired pH values (4, 7.4, and 9) were prepared in accordance with the British Pharmacopoeia monograph 2015. 30 µL of stock solution was diluted with 1 mL of appropriate buffer, shaken and injected immediately. Samples were withdrawn and analysed at time intervals of t = 0 min, 5 min, 30 min, 60 min, 90 min, 120 min, 24 h and 48 h.

[4] = tested on: MDA-MB-231 human breast cancer cells; experiment: MTT assay for antiproliferative effects in MDA-MB-231; format: cell-based; conditions: MDA-MB-231, MTT assay
Protocol: The human breast carcinoma cell line, MCF-7, was purchased from the European Collection of Animal Cell Cultures (ECACC). The cells were maintained in MCF-7 complete medium; consisting of Eagle’s Minimum Essential Medium (MEM) supplemented with 10% (v/v) Foetal Bovine Serum (FBS), 2 mM L-glutamine, 100 μg/mL penicillin/streptomycin and 1% (v/v) non-essential amino acids. […] The human breast carcinoma cell line, MDA, was purchased from the European Collection of Animal Cell Cultures (ECACC). The cells were maintained in MDA complete medium; consisting of Dulbecco’s Modified Eagle’s Medium (D-MEM) supplemented with 10% (v/v) Foetal Bovine Serum (FBS), 2 mM L-glutamine, 100 μg/mL penicillin/streptomycin. […] The MTT assay was performed according to the reported protocol. The tetrazolium salt, 3-(4,5-dimethylthiazol-2-yl)-2,5-diphenyltetrazolium bromide (MTT) is taken up only by metabolically active cells and cleaved to form a formazan dye by mitochondrial dehydrogenases. […] Graphs of percentage cell viability versus concentration of the subject compound were processed using PRISM [31].

[5] = tested on: MCF-7 human breast cancer cells; experiment: Lactate dehydrogenase (LDH) cytotoxicity assay in MCF-7; format: cell-based; conditions: % cell lysis at 10 µM
Protocol: as §1

[6] = tested on: MCF-7 human breast cancer cells; experiment: MTT assay for antiproliferative effects in MCF-7; format: cell-based
Protocol: The human breast carcinoma cell line, MCF-7, was purchased from the European Collection of Animal Cell Cultures (ECACC). The cells were maintained in MCF-7 complete medium; consisting of Eagle’s Minimum Essential Medium (MEM) supplemented with 10% (v/v) Foetal Bovine Serum (FBS), 2 mM L-glutamine, 100 μg/mL penicillin/streptomycin and 1% (v/v) non-essential amino acids. Cell cultures were maintained at 37 °C under a humidified atmosphere of 5% CO2/95% O2. The human breast carcinoma cell line, MDA, was purchased from the European Collection of Animal Cell Cultures (ECACC). The cells were maintained in MDA complete medium; consisting of Dulbecco’s Modified Eagle’s Medium (D-MEM) supplemented with 10% (v/v) Foetal Bovine Serum (FBS), 2 mM L-glutamine, 100 μg/mL penicillin/streptomycin. Cell cultures were maintained at 37 °C under a humidified atmosphere of 5% CO2/95% O2. The MTT assay was performed according to the reported protocol. The tetrazolium salt, 3-(4,5-dimethylthiazol-2-yl)-2,5-diphenyltetrazolium bromide (MTT) is taken up only by metabolically active cells and cleaved to form a formazan dye by mitochondrial dehydrogenases. Assays where repeated in three experiments performed in triplicate (unless otherwise stated) and reported results represent the mean value ± standard error mean. Graphs of percentage cell viability versus concentration of the subject compound were processed using PRISM [31].

[7] = Homo sapiens, MCF7, MCF-7, MTT assay, mean of at least three experiments in triplicate
[8] = Homo sapiens, MCF7, MCF-7, MTT assay, values in nM

Structure (SMILES): CC/C(=C(\c1ccccc1)c1ccc(OCCN(C)C)cc1)c1ccccc1 [Tamoxifen, reference compound]
- % Cell Death at 10 μM [1]: 0%
- estrogenic activity (alkaline phosphatase stimulation) ([2]; compound dosed individually): displays some estrogenic activity at higher concentrations
- estrogen stimulation (alkaline phosphatase) in mixture with estradiol ([2]; dosed with 1 nM estradiol spike): estrogen stimulation at low concentration while a reduction occurs as the concentration of Tamoxifen is increased

Structure (SMILES): CCC(=C(c1ccc(O)cc1)c1ccc(OCCN(C)C(=O)/C(=C/c2ccc(OC)c(O)c2)c2cc(OC)c(OC)c(OC)c2)cc1)c1ccccc1 (mixture of isomers) [Compound 27, (E)-3-(3-Hydroxy-4-methoxyphenyl)-N-(2-{4-[(E/Z)-1-(4-hydroxyphenyl)-2-phenylbut-1-enyl]phenoxy}ethyl)-N-methyl-2-(3,4,5-trimethoxyphenyl) acrylamide]
- half-life at 14.6 µg/mL [3]: > 24 h
- IC50 [4]: 2.67 µM
- % Cell Death at 10 μM [1]: 17%
- % Cell Death at 10 μM [5]: 10%
- IC50 [6, 7]: 33 nM
- IC50 [6, 8]: 0.033 nM

Structure (SMILES): CCC(=C(c1ccc(O)cc1)c1ccc(OCCN(C)C(=O)/C(=C/c2cc(OC)c(OC)c(OC)c2)c2ccc(OC)cc2)cc1)c1ccc(O)cc1 (mixture of isomers) [Compound 32, (E)-N-(2-{4-[(E/Z)-1,2-Bis-(4-hydroxyphenyl)but-1-enyl]phenoxy}ethyl)-2-(4-methoxyphenyl)-N-methyl-3-(3,4,5-trimethoxyphenyl)acrylamide]
- half-life at 14.6 µg/mL [3]: > 24 h
- IC50 [4]: 4.09 µM
- % Cell Death at 10 μM [1]: 0%
- % Cell Death at 10 μM [5]: 16%
- IC50 [6, 7]: 41 nM

Structure (SMILES): COc1ccc(/C=C(/C(=O)O)c2cc(OC)c(OC)c(OC)c2)cc1N [Compound 16, (E)-3-(3-Amino-4-methoxyphenyl)-2-(3,4,5-trimethoxyphenyl)acrylic acid]
- IC50 [6, 7]: < 10000 nM
- IC50 ([6]; MCF-7, MTT assay, mean of at least three experiments in triplicate): 6700 nM
- melting point: 199 to 202 °C

Structure (SMILES): COc1ccc(/C(=C\c2cc(OC)c(OC)c(OC)c2)C(=O)N2CCCCC2)cc1 [Compound 47, (E)-2-(4-Methoxyphenyl)-1-(piperidin-1-yl)-3-(3,4,5-trimethoxyphenyl)prop-2-en-1-one]
- IC50 [6, 7]: > 50000 nM
- melting point: 106 to 108 °C

Structure (SMILES): COc1cc(/C(=C\c2ccc(SC)cc2)C(=O)O)cc(OC)c1OC [Compound 20, (E)-3-(4-Methylsulfanylphenyl)-2-(3,4,5-trimethoxyphenyl)acrylic acid]
- IC50 [6, 7]: 10600 nM
- melting point: 194 to 196 °C

Structure (SMILES): CCC(=C(c1ccc(O)cc1)c1ccc(OCCN(C)C(=O)/C(=C/c2ccc3c(c2)OCO3)c2ccc(OC)cc2)cc1)c1ccccc1 (mixture of isomers) [Compound 33, (E)-3-Benzo[1,3]dioxol-5-yl-N-(2-{4-[(E/Z)-1-(4-hydroxyphenyl)-2-phenylbut-1-enyl]phenoxy}ethyl)-2-(4-methoxyphenyl)-N-methylacrylamide]
- IC50 [4]: 5.23 µM
- % Cell Death at 10 μM [1]: 0%
- % Cell Death at 10 μM [5]: 8%
- IC50 [6, 7]: 1470 nM

Structure (SMILES): COc1ccc(/C=C\c2cc(OC)c(OC)c(OC)c2)cc1O [Compound 26, Combretastatin A-4, reference compound]
- IC50 [4]: 0.043 µM
- % Cell Death at 10 μM [1]: 4%
- % Cell Death at 10 μM [5]: 13%
- IC50 [6, 7]: 8 nM
- IC50 [6, 8]: 8 nM

Structure (SMILES): CCC(=C(c1ccc(O)cc1)c1ccc(OCCN(C)C(=O)/C(=C/c2ccc(OC)c(N)c2)c2cc(OC)c(OC)c(OC)c2)cc1)c1ccccc1 (mixture of isomers) [Compound 45, (E)-3-(3-Amino-4-methoxyphenyl)-N-(2-{4-[(E/Z)-1-(4-hydroxyphenyl)-2-phenylbut-1-enyl]phenoxy}ethyl)-N-methyl-2-(3,4,5-trimethoxyphenyl) acrylamide]
- IC50 [4]: 7.11 µM
- % Cell Death at 10 μM [1]: 0%
- % Cell Death at 10 μM [5]: 8%
- IC50 [6, 7]: 959 nM

Structure (SMILES): COc1cc(/C(=C\c2ccc3ccccc3c2)C(=O)O)cc(OC)c1OC [Compound 22, (E)-3-Naphthalen-2-yl-2-(3,4,5-trimethoxyphenyl)acrylic acid]
- IC50 [6, 7]: 15300 nM
- melting point: 238 to 240 °C

Structure (SMILES): COc1cc(/C(=C\c2ccc(C)cc2)C(=O)O)cc(OC)c1OC [Compound 19, (E)-3-p-Tolyl-2-(3,4,5-trimethoxyphenyl)acrylic acid]
- IC50 [6, 7]: 26100 nM
- melting point: 190 to 193 °C

Structure (SMILES): CCC(=C(c1ccc(O)cc1)c1ccc(OCCN(C)C(=O)/C(=C/c2ccc(OC)c(N)c2)c2cc(OC)c(OC)c(OC)c2)cc1)c1ccc(O)cc1 (mixture of isomers) [Compound 46, (E)-3-(3-Amino-4-methoxyphenyl)-N-(2-{4-[(E/Z)-1,2-bis-(4-hydroxyphenyl)but-1-enyl]phenoxy}ethyl)-N-methyl-2-(3,4,5-trimethoxyphenyl) acrylamide]
- IC50 [4]: 49.7 µM
- % Cell Death at 10 μM [1]: 0%
- % Cell Death at 10 μM [5]: 6%
- IC50 [6, 7]: 6150 nM

Structure (SMILES): COc1cc(/C(=C\c2ccc(Br)cc2)C(=O)O)cc(OC)c1OC [Compound 17, (E)-3-(4-Bromophenyl)-2-(3,4,5-trimethoxyphenyl)acrylic Acid]
- IC50 [6, 7]: > 50000 nM
- melting point: 227 to 230 °C

Structure (SMILES): CCC(=C(c1ccc(O)cc1)c1ccc(OCCN(C)C(=O)/C(=C/c2ccc(Br)cc2)c2cc(OC)c(OC)c(OC)c2)cc1)c1ccccc1 (mixture of isomers) [Compound 41, (E)-3-(4-Bromophenyl)-N-(2-{4-[(E/Z)-1-(4-hydroxyphenyl)-2-phenylbut-1-enyl]phenoxy}ethyl)-N-methyl-2-(3,4,5-trimethoxyphenyl)acrylamide]
- IC50 [4]: > 50 µM
- % Cell Death at 10 μM [1]: 0%
- % Cell Death at 10 μM [5]: 5%
- IC50 [6, 7]: 1030 nM

Structure (SMILES): CCC(=C(c1ccc(O)cc1)c1ccc(OCCN(C)C(=O)/C(=C/c2ccc(OC)c(F)c2)c2cc(OC)c(OC)c(OC)c2)cc1)c1ccccc1 (mixture of isomers) [Compound 43, (E)-3-(3-Fluoro-4-methoxyphenyl)-N-(2-{4-[(E/Z)-1-(4-hydroxyphenyl)-2-phenylbut-1-enyl]phenoxy}ethyl)-N-methyl-2-(3,4,5-trimethoxyphenyl) acrylamide]
- IC50 [4]: 30.3 µM
- % Cell Death at 10 μM [1]: 0%
- % Cell Death at 10 μM [5]: 2%
- IC50 [6, 7]: 180 nM

Structure (SMILES): COc1cc(/C(=C\c2ccc(F)cc2)C(=O)O)cc(OC)c1OC [Compound 18, (E)-3-(4-Fluorophenyl)-2-(3,4,5-trimethoxyphenyl)acrylic acid]
- IC50 [6, 7]: > 50000 nM
- melting point: 211 to 213 °C
